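Results reflect a 48-hour exposure of cells in 96-well plates to compound at five concentrations. GI50: concentration for 50% inhibition of growth. TGI denotes the concentration required for complete inhibition of growth.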
Legend:
Test in all cases: NCI-60 cell line screen, 48 h
SNB-19 CNS = test system: SNB-19 CNS
OVCAR-8 ovarian = test system: OVCAR-8 ovarian
SK-MEL-5 melanoma = test system: SK-MEL-5 melanoma
K-562 leukemia = test system: K-562 leukemia
SNB-75 CNS = test system: SNB-75 CNS
CAKI-1 renal = test system: CAKI-1 renal
HOP-62 NSCLC = test system: HOP-62 NSCLC
MOLT-4 leukemia = test system: MOLT-4 leukemia
A498 renal = test system: A498 renal
PC-3 prostate = test system: PC-3 prostate

| Compound | TGI (SNB-19 CNS) | TGI (OVCAR-8 ovarian) | TGI (SK-MEL-5 melanoma) | TGI (K-562 leukemia) | TGI (SNB-75 CNS) | TGI (CAKI-1 renal) | TGI (HOP-62 NSCLC) | TGI (MOLT-4 leukemia) | GI50 (A498 renal) | TGI (A498 renal) | GI50 (SNB-19 CNS) | GI50 (OVCAR-8 ovarian) | GI50 (PC-3 prostate) | TGI (PC-3 prostate) | GI50 (SK-MEL-5 melanoma) | GI50 (K-562 leukemia) | GI50 (SNB-75 CNS) | GI50 (HOP-62 NSCLC) | GI50 (CAKI-1 renal) | GI50 (MOLT-4 leukemia) |
| --- | --- | --- | --- | --- | --- | --- | --- | --- | --- | --- | --- | --- | --- | --- | --- | --- | --- | --- | --- | --- |
| Cc1cc2cc(Cl)ccc2nc1C(=O)c1ccccc1 | > 100 µM | > 100 µM | > 100 µM | > 100 µM | 81.9 µM | > 100 µM | > 100 µM | > 100 µM | – | – | – | – | – | – | – | – | – | – | – | – |
| O=C(CCCCC(=O)N/N=C\c1ccccc1Cl)N/N=C\c1ccccc1Cl | 39.6 µM | 30.6 µM | > 100 µM | > 100 µM | 32.9 µM | – | 24.6 µM | – | 3.13 µM | 38.1 µM | 11.3 µM | 0.515 µM | 0.511 µM | > 100 µM | 3.94 µM | 3.02 µM | 12.7 µM | 3.22 µM | – | – |
| COc1ccc2nc3cc(Cl)ccc3c(NCCC(=O)OCC(O)C(O)C(O[C@H](C)C(=O)NC(C)C(=O)NC(CCC(N)=O)C(=O)OCc3ccccc3)C(C=O)NC(C)=O)c2c1 (stereo partly specified) | 62.1 µM | 30.5 µM | 30.2 µM | 68 µM | 31.7 µM | 40.9 µM | 33.9 µM | 44.2 µM | – | 37.7 µM | – | – | – | – | – | – | – | – | – | – |
| O=C(Nc1ccc(Cl)c(Cl)c1)C(=O)Nn1c(=S)[nH]c2ccccc2c1=O | > 100 µM | > 100 µM | > 100 µM | > 100 µM | > 100 µM | > 100 µM | > 100 µM | > 100 µM | – | > 100 µM | – | – | – | – | – | – | – | – | – | – |
| O=C(CCc1nnc2s/c(=C\c3ccc4c(c3)OCO4)c(=O)n12)Nc1cc(Cl)ccc1Cl | > 100 µM | > 100 µM | > 100 µM | > 100 µM | > 100 µM | > 100 µM | > 100 µM | > 100 µM | – | > 100 µM | – | – | – | – | – | – | – | – | – | – |
| COc1cc(C2c3cc4c(cc3[C@H](NC(=O)c3cccs3)C3COC(=O)[C@H]23)OCO4)cc(OC)c1OC (stereo partly specified) | > 100 µM | 94.4 µM | 0.708 µM | > 37.8 µM | > 100 µM | – | – | 24.5 µM | – | 0.0481 µM | – | – | – | 0.0236 µM | – | – | – | – | – | – |
| COc1ccc2c(c1)CCc1cnn(C3OC(COC(C)=O)C(OC(C)=O)C(OC(C)=O)C3OC(C)=O)c1-2 (stereo unspecified) | > 100 µM | > 100 µM | > 100 µM | > 100 µM | > 100 µM | > 100 µM | > 100 µM | 74.3 µM | – | > 100 µM | – | – | – | – | – | – | – | – | – | – |
| Cc1cc(C)nc(NS(=O)(=O)c2ccc(NC(=O)c3cccc4c(Nc5ccc(S(=O)(=O)Nc6nc(C)cc(C)n6)cc5)c5ccccc5nc34)cc2)n1 | 82.4 µM | 68.1 µM | 36.6 µM | 61.2 µM | 35.5 µM | 51.6 µM | 66 µM | 62.8 µM | – | 35.9 µM | – | – | – | – | – | – | – | – | – | – |
| COc1ccc(NC(=O)CC/C(CC(=O)c2ccccc2Cl)=N\Nc2nnc(C)n2N)cc1 | > 100 µM | > 100 µM | – | > 100 µM | – | > 100 µM | – | > 100 µM | – | – | – | – | – | – | – | – | – | – | – | – |
| CN(C)c1ccc(/C=C/C(=O)c2ccccc2)cc1Br | 41.3 µM | 57.1 µM | 39.1 µM | 75.7 µM | 45.7 µM | 32.9 µM | > 100 µM | 69 µM | – | > 100 µM | – | – | – | – | – | – | – | – | – | – |
| Cc1cc(Cl)ccc1NC(=O)/C(Cl)=C(/Cl)C(=O)O | > 100 µM | 34.2 µM | > 100 µM | > 100 µM | > 100 µM | 37.6 µM | 47.7 µM | – | – | – | – | – | – | 54.5 µM | – | – | – | – | – | – |
| Cn1c(=O)nc2n(-c3ccc(F)cc3)c3ccccc3nc-2c1=O | 37.4 µM | 67.4 µM | 25.8 µM | 45.8 µM | 91.6 µM | 73.3 µM | > 100 µM | 62.8 µM | – | 93.4 µM | – | – | – | – | – | – | – | – | – | – |
| O=C1OC(c2ccccc2)C2CC3CC4(CCC3CN12)OCCO4 (stereo unspecified) | > 100 µM | > 100 µM | > 100 µM | > 100 µM | > 100 µM | > 100 µM | > 100 µM | > 100 µM | – | > 100 µM | – | – | – | – | – | – | – | – | – | – |
| COC(=O)CSc1ccccc1 | > 100 µM | > 100 µM | > 100 µM | > 100 µM | > 100 µM | > 100 µM | > 100 µM | > 100 µM | – | > 100 µM | – | – | – | – | – | – | – | – | – | – |
| COc1ccc(C(=O)/C(=N/Nc2ccccc2)c2ccc(OC)cc2)cc1 | > 100 µM | > 100 µM | > 100 µM | > 100 µM | > 100 µM | > 100 µM | – | > 100 µM | – | – | – | – | – | – | – | – | – | – | – | – |
| O=C(N/N=C/c1coc2ccc(Cl)cc2c1=O)c1ccncc1 | > 100 µM | > 100 µM | > 100 µM | 66.9 µM | > 100 µM | > 100 µM | > 100 µM | 71.2 µM | – | – | > 100 µM | 35.6 µM | 59.1 µM | > 100 µM | 44.8 µM | 9.49 µM | 49.4 µM | 39.7 µM | 74.1 µM | 21.1 µM |
| [N-]=[N+]=Nc1ccccc1-[n+]1noc([O-])c1Br | > 100 µM | > 100 µM | > 100 µM | > 100 µM | > 100 µM | > 100 µM | > 100 µM | > 100 µM | – | – | – | – | – | – | – | – | – | – | – | – |
| N#Cc1ccc(/C=N\N2C(=O)c3ccccc3C2=O)cc1 | > 100 µM | > 100 µM | > 100 µM | > 100 µM | > 100 µM | > 100 µM | > 100 µM | > 100 µM | – | > 100 µM | – | – | – | – | – | – | – | – | – | – |
| COC(=O)CCC(=O)CC(=O)C(=O)Nc1ccc(F)cc1 | > 100 µM | > 100 µM | > 100 µM | > 100 µM | > 100 µM | > 100 µM | > 100 µM | > 100 µM | – | > 100 µM | – | – | – | – | – | – | – | – | – | – |
| O=C(/C=C/C=C/c1ccccc1)c1ccc(Nc2nc(Nc3ccccc3)nc(Nc3ccccc3)n2)cc1 | > 100 µM | > 100 µM | > 100 µM | 37.2 µM | > 100 µM | > 100 µM | > 100 µM | 35.8 µM | 19.8 µM | > 100 µM | > 100 µM | 31.4 µM | – | – | 13 µM | 7.73 µM | 17.8 µM | > 100 µM | 16.3 µM | 9.89 µM |
| O=c1oc2c3ccc4ccccc4c3n(CCN3CCOCC3)c2c2ccccc12 | > 100 µM | > 100 µM | – | – | > 100 µM | > 100 µM | > 100 µM | 18.5 µM | – | – | – | – | – | – | – | – | – | – | – | – |
| COc1ccc(C(=O)C(c2ccc(OC)cc2)C2C(=O)Oc3ccccc32)cc1 (stereo unspecified) | – | > 100 µM | > 100 µM | > 100 µM | > 100 µM | – | – | > 100 µM | > 100 µM | > 100 µM | – | > 100 µM | – | – | > 100 µM | > 100 µM | > 100 µM | – | – | > 100 µM |
| Nc1nc(=O)n(C2CC(O)C(O)C(CO)O2)cc1F (stereo unspecified) | > 100 µM | > 100 µM | – | > 100 µM | > 100 µM | – | > 100 µM | > 100 µM | – | > 100 µM | – | – | – | – | – | – | – | – | – | – |
| COc1ccc(CN2C(=O)C(Cc3cc(OC)c(OC)c(C)c3OC)N(C(=O)OC(C)C)C(=O)/C2=C/c2cc(OC)c(OC)c(C)c2OC)cc1 (stereo unspecified) | > 100 µM | > 100 µM | > 100 µM | > 100 µM | > 100 µM | > 100 µM | > 100 µM | > 100 µM | – | > 100 µM | – | – | – | – | – | – | – | – | – | – |
| C#CC[C@@H]1C[C@]2(C)[C@H]3CC[C@@H]4[C@H]5[C@H](C(=C)C)CC[C@]5(C(=O)O)CC[C@@]4(C)[C@]3(C)CC[C@H]2C(C)(C)[C@H]1O | 13.4 µM | 4.81 µM | 5.58 µM | 20.9 µM | 4.12 µM | – | 5.28 µM | > 100 µM | 1.88 µM | 4.19 µM | 3.04 µM | 2.17 µM | 1.5 µM | 3.52 µM | 2.27 µM | 2.32 µM | 1.95 µM | 2.08 µM | – | 3.16 µM |
| CCOc1cc(C=O)c2c(ccc3ccc(OC)c(OC)c32)c1OC | > 100 µM | > 100 µM | > 100 µM | > 100 µM | > 100 µM | > 100 µM | – | > 100 µM | – | – | – | – | – | > 100 µM | – | – | – | – | – | – |
| Cc1cc2c(cc1C)N1Cc3c(ccc(C)c3C)N(C2)C1 (tested in a mixture with another compound) | > 100 µM | > 100 µM | > 100 µM | > 100 µM | > 100 µM | – | > 100 µM | > 100 µM | – | – | – | – | – | – | – | – | – | – | – | – |
| O=c1cc2n(c(=O)[nH]1)C1OC(C(O)C1O)[C@H]2CCO (stereo partly specified) | > 100 µM | > 100 µM | > 100 µM | > 100 µM | – | > 100 µM | > 100 µM | > 100 µM | – | > 100 µM | – | – | – | – | – | – | – | – | – | – |
| C=CCCC(O)c1ccc(C(O)CCCCCCCCCCCC)o1 (stereo unspecified) | > 100 µM | 30.3 µM | 35.7 µM | 27.2 µM | > 100 µM | 34.8 µM | 34.8 µM | 38.3 µM | – | – | 51.6 µM | 13.5 µM | 22.8 µM | 47.8 µM | 20.1 µM | 9.29 µM | 33.3 µM | 19.1 µM | 18.1 µM | 7.16 µM |
| O=C(CC1(O)C(=O)Nc2c(Cl)cccc21)c1ccccc1 (stereo unspecified) | > 100 µM | > 100 µM | > 100 µM | > 100 µM | > 100 µM | > 100 µM | > 100 µM | > 100 µM | – | – | – | – | – | – | – | – | – | – | – | – |

— PubChem BioAssay (NCI)
